Columns and labels:
[1] = tested on: human whole blood, PBMCs, monocyte-derived DCs, HUVECs; assay: Stimulatory potential in vitro (proliferation, CD69, cytokines); type: cell-based
Procedure: The ability of CFZ533 to stimulate activation of human leukocytes was assessed using proliferation and upregulation of the activation molecule CD69 on B cells in whole blood. […] Human whole blood from multiple donors (n=13) were incubated with a dose titration of CFZ533, and proliferation (^3H-TdR) was assessed after three days of culture. ii. Human PBMCs from multiple donors (n=26) were incubated with a dose titration of CFZ533, and proliferation (^3H-TdR) was assessed after three days of culture. For both graphs, data is presented as mean and SD of normalized cpm as a function of log-transformed CFZ533 concentration (rCD154+IL-4=100; dotted lines, cells plus media=0; dashed lines). […] Human PBMCs were stimulated for 3 days with a dose titration of CFZ533 in the presence of IL-4 (i) or anti-IgM F(ab′)2. (ii). The mean and SD of 3H-TdR (cpm) is shown as a function of log-transformed CFZ533 concentration. In FIG. 6C it is shown how human whole blood (41 donors) was cultured overnight with no stimuli, CFZ533, isotype control or rCD154 and CD69 expression on B cells was assessed by FACS. Each dot represents data from a single donor with mean % CD69 values indicated by a horizontal red line.

[2] = tested on: transplanted kidney grafts; assay: Allograft biopsies scored by Chronic Allograft Damage Index (CADI); type: in vivo, human
Text: The quality of the graft was estimated using the Chronic Allograph Damage Index (CADI) (Isoniemi et al. 1992 and 1994), where scores of ≤1 reflects normal renal histology and higher scores correlate with poor long-term outcome (Hayry et al. 2004, Yilmaz et al. 2007, Yilmaz et al. 2003). Pristine renal histology was found in 3 of 5 patients on iscalimab (60%) and in none of the 7 treated with tacrolimus (0%). The average CADI was 1.60±0.60 for CFZ533 (n=5) vs. 5.14±0.80 for tacrolimus (n=7), (mean±SEM, p<0.01 using Student t)
A PoC Study in de Novo Renal Transplantation (CCFZ533X2101/NCT02217410) using CFZ533 was performed. […] Allograft biopsies were performed on a subset of study patients. A pathologist, blinded to therapy, reviewed and scored all biopsy slides using the established Banff criteria and calculated the chronic allograft damage index (CADI, Nickerson P et al., Legendre C et al., Seron D et al.,). A CADI of 1 or less was considered as ‘normal renal histology’. Two patients were excluded from the analysis, since they switched therapy after only 2 months. […] The average CADI at final biopsy was 1.6±0.6 for CFZ533 and 5.1±0.8 for tacrolimus, p<0.01.

[3] = Plasma concentrations in solid organ transplantation patients; type: in vivo, human
Procedure: Without wishing to be bound by theory, the inventors have identified that sustained plasma concentrations at least about 40 μg/mL of the CFZ533 antibody was necessary to block the CD40-CD40L pathway in target tissues in solid organ transplantation patients. Thus, with a dosing regimen providing, throughout the entire treatment period, sustained plasma concentrations of at least 40 μg/mL and up to 400 μg/mL, in situations where CD40 expression in affected tissues would be enhanced (severity of the condition, activation of the immune system post transplantation), is considered for a therapeutic effect.

Single dose PK/PD study = type: in vivo, cynomolgus monkeys
Procedure: Single dose pharmacokinetic/pharmacodynamic (PK/PD) studies utilized biologics-treatment naive cynomolgus monkeys (Macaca fascicularis) between 7.5-8.5 years old (6.5±2.6 kg) and captive-bred from Philippines (Siconbrec, Makati City, Philippines). Animal handling, care, drug treatments and blood sampling are performed according to the Swiss Federal Law for animal protection (animal licenses BS #1900, BS #1495). For the recall immunization experiments, we utilized animals from a toxicology study conducted at Covance Laboratories GmbH, Muenster, Germany, (manuscript in preparation). The study was performed according to an authorized study protocol and local standard operating procedures in strict compliance with national legal regulations on animal welfare law and accepted animal welfare standards.
In the PK study, CFZ533 was administered to three animals at calculated single doses of 16.2 (5532), 18.5 (5531) and 20 (5530) mg/kg. […] KLH specific IgM/IgG titers were determined with sandwich ELISA using cynomolgus monkey anti-KLH IgM/IgG reference serum as standard. […]
FIG. 9A. Serum concentrations of CFZ533 in three cynomolgus monkeys after single dose administration at calculated doses of 16.2 (5532), 18.5 (5531) and 20 (5530) mg/kg intravenously. […]

platelet aggregation = assay: Platelet function and blood hemostasis; type: cell-based

With “CFZ533: human anti-CD40 IgG1 monoclonal antibody with Fc-silencing N297A mutation; heavy chain SEQ ID NO: 9, light chain SEQ ID NO: 10” the “Induction of thymidine incorporation (proliferation)” value ([1]; human whole blood (1:10 dilution) or PBMCs, three days) was “unable to induce thymidine incorporation”, the “Induction of CD69 upregulation on B cells” value ([1]; human whole blood, overnight) was “unable to induce upregulation of CD69” and the “Induction of cytokine production” value ([1]; monocyte-derived DCs or HUVECs) was “unable to induce cytokine production”. The “average CADI (mean±SEM)” value ([2]; final biopsy) was 1.6±0.6, the “patients with normal (pristine) renal histology, CADI of 1 or less” value ([2]; treated for up to 25 months) was 60% and the “Safety and tolerability at maximum plasma concentration” value ([3]; about 400 μg/ml at steady state) was “generally safe and well tolerated”. For the same substance, the Thromboembolic events ([3]; human, in vivo) was “No thromboembolic events were observed”, the “observed maximum plasma concentration at steady state” value ([3]; human, in vivo) was “about 400 μg/ml” and the “sustained plasma concentration necessary to block the CD40-CD40L pathway in target tissues” value ([3]; solid organ transplantation patients) was “at least 40 μg/mL”. The “inflection point in PK profiles (drop of CD40 saturation)” value (Single dose PK/PD study; serum concentration-time profiles, non-human primates) was 10 to 20 µg/mL, the “Depletion of peripheral blood B cells” value (Single dose PK/PD study; single intravenous dose 16.2, 18.5 and 20 mg/kg) was “did not deplete peripheral blood B cells” and the Platelet aggregation responses (platelet aggregation) was “does not induce platelet aggregation responses”.

From patent US11780927B2, “Anti-CD40 antibodies for use in prevention of graft rejection” (NOVARTIS AG, priority 2018, dated 2023)
